Columns and labels:
Format in all cases: in vivo
[1] = tested on: broad-leaved weeds, e.g., monochoria, false pimpernel and toothcup; assay: Water application, herbicidal effect on broad-leaved weeds (Table 2); set-up: key: 0: not damaged; 5: completely killed; settings: 25 days, score 0-5
Procedure, shortened: (§1)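 Paddy-soil pots flooded to paddy conditions; rice transplanted at 3-leaf stage, barnyard grass sown, broad-leaved weeds germinating spontaneously. Test compounds applied as wettable powder to soil under flooded water. Herbicidal effect and rice phytotoxicity scored 0–5 at 25 days after application.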

[2] = tested on: common lambsquarter (Chenopodium album); assay: Pre-emergence application, herbicidal effect on common lambsquarter (Table 1); set-up: key: 0: not damaged; 5: completely killed; settings: 20 days after application, score 0-5
Procedure, shortened: (§2)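 Soil treatment after sowing, pre-emergence; wettable powder formulations diluted with water. Greenhouse, 20 d. Score 0 = no damage, 5 = complete kill.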

rice = assay: Water application, phytotoxicity on rice (Table 2); set-up: key: 0: no effect; 1: very slightly affected; 2: slightly affected; 3: moderately affected; 4: considerably affected; 5: completely killed; settings: 25 days, score 0-5
Procedure, shortened: as §1

[3] = tested on: barnyard grass (Echinochloa crus-galli); assay: Water application, herbicidal effect on barnyard grass (Table 2); set-up: key: 0: not damaged; 5: completely killed; settings: 25 days, score 0-5
Procedure, shortened: as §1

[4] = tested on: barnyard grass (Echinochloa crus-galli); assay: Pre-emergence application, herbicidal effect on barnyard grass (Table 1); set-up: key: 0: not damaged; 5: completely killed; settings: 20 days after application, score 0-5
Procedure, shortened: as §2

[5] = tested on: large crabgrass (Digitaria sanguinalis); assay: Pre-emergence application, herbicidal effect on large crabgrass (Table 1); set-up: key: 0: not damaged; 5: completely killed; settings: 20 days after application, score 0-5
Procedure, shortened: as §2

[6] = tested on: common purslane (Portulaca oleracea); assay: Pre-emergence application, herbicidal effect on common purslane (Table 1); set-up: key: 0: not damaged; 5: completely killed; settings: 20 days after application, score 0-5
Procedure, shortened: as §2

radish = assay: Pre-emergence application, herbicidal effect on radish (Table 1); set-up: key: 0: not damaged; 5: completely killed; settings: 20 days after application, score 0-5
Procedure, shortened: as §2

[7] = tested on: redroot pigweed (Amaranthus retroflexus); assay: Pre-emergence application, herbicidal effect on redroot pigweed (Table 1); set-up: key: 0: not damaged; 5: completely killed; settings: 20 days after application, score 0-5
Procedure, shortened: as §2

| SMILES | Herbicidal effects, broad-leaved weeds ([1]; 10 g/a) | Herbicidal effects, broad-leaved weeds ([1]; 20 g/a) | Herbicidal effects, broad-leaved weeds ([1]; 40 g/a) | Herbicidal effect, common lambsquarter ([2]; 10 g./a.) | Herbicidal effect, common lambsquarter ([2]; 20 g./a.) | Herbicidal effect, common lambsquarter ([2]; 40 g./a.) | Phytotoxicity on rice (rice; 10 g/a) | Phytotoxicity on rice (rice; 20 g/a) | Phytotoxicity on rice (rice; 40 g/a) | Herbicidal effects, barnyard grass ([3]; 10 g/a) | Herbicidal effects, barnyard grass ([3]; 20 g/a) | Herbicidal effects, barnyard grass ([3]; 40 g/a) | Herbicidal effect, barnyard grass ([4]; 10 g./a.) | Herbicidal effect, barnyard grass ([4]; 20 g./a.) | Herbicidal effect, barnyard grass ([4]; 40 g./a.) | Herbicidal effect, large crabgrass ([5]; 10 g./a.) | Herbicidal effect, large crabgrass ([5]; 20 g./a.) | Herbicidal effect, large crabgrass ([5]; 40 g./a.) | Herbicidal effect, common purslane ([6]; 10 g./a.) | Herbicidal effect, common purslane ([6]; 20 g./a.) | further results |
| --- | --- | --- | --- | --- | --- | --- | --- | --- | --- | --- | --- | --- | --- | --- | --- | --- | --- | --- | --- | --- | --- |
| CCCCSP(=O)(OCCC)SCC(=O)N1CCCCC1CC (stereo not drawn) [Compound 86] | 5 | 5 | 5 | 5 | 5 | 5 | 0 | 0 | 0 | 5 | 5 | 5 | 5 | 5 | 5 | 5 | 5 | 5 | 5 | 5 | Herbicidal effect, common purslane ([6]; 40 g./a.): 5; Herbicidal effect, radish (radish; 10 g./a.): 0; Herbicidal effect, radish (radish; 20 g./a.): 0; Herbicidal effect, radish (radish; 40 g./a.): 0; Herbicidal effect, redroot pigweed ([7]; 10 g./a.): 4; Herbicidal effect, redroot pigweed ([7]; 20 g./a.): 5; Herbicidal effect, redroot pigweed ([7]; 40 g./a.): 5 |
| CCCOP(=O)(SCC(=O)N1CCCCC1CC)SC(C)CC (stereo not drawn) [Compound 87] | 5 | 5 | 5 | 3 | 3 | 5 | 0 | 0 | 0 | 5 | 5 | 5 | 5 | 5 | 5 | 5 | 5 | 5 | 3 | 4 | Herbicidal effect, common purslane ([6]; 40 g./a.): 5; Herbicidal effect, radish (radish; 10 g./a.): 0; Herbicidal effect, radish (radish; 20 g./a.): 0; Herbicidal effect, radish (radish; 40 g./a.): 0; Herbicidal effect, redroot pigweed ([7]; 10 g./a.): 3; Herbicidal effect, redroot pigweed ([7]; 20 g./a.): 4; Herbicidal effect, redroot pigweed ([7]; 40 g./a.): 5 |
| CCCOP(=O)(SCC(=O)N1CCCCC1CC)SCC(C)C (stereo not drawn) [Compound 88] | 5 | 5 | 5 | 3 | 3 | 4 | 0 | 0 | 0 | 5 | 5 | 5 | 5 | 5 | 5 | 5 | 5 | 5 | 3 | 3 | Herbicidal effect, common purslane ([6]; 40 g./a.): 4; Herbicidal effect, radish (radish; 10 g./a.): 0; Herbicidal effect, radish (radish; 20 g./a.): 0; Herbicidal effect, radish (radish; 40 g./a.): 0; Herbicidal effect, redroot pigweed ([7]; 10 g./a.): 3; Herbicidal effect, redroot pigweed ([7]; 20 g./a.): 3; Herbicidal effect, redroot pigweed ([7]; 40 g./a.): 4 |
| CCCCCSP(=O)(OCCC)SCC(=O)N1CCCCC1CC (stereo not drawn) [Compound 89] | 5 | 5 | 5 | 3 | 4 | 5 | 0 | 0 | 0 | 5 | 5 | 5 | 4 | 5 | 5 | 4 | 5 | 5 | 3 | 4 | Herbicidal effect, common purslane ([6]; 40 g./a.): 5; Herbicidal effect, radish (radish; 10 g./a.): 0; Herbicidal effect, radish (radish; 20 g./a.): 0; Herbicidal effect, radish (radish; 40 g./a.): 0; Herbicidal effect, redroot pigweed ([7]; 10 g./a.): 3; Herbicidal effect, redroot pigweed ([7]; 20 g./a.): 4; Herbicidal effect, redroot pigweed ([7]; 40 g./a.): 5 |
| CCCOP(=O)(SCCC(C)C)SCC(=O)N1CCCCC1CC (stereo not drawn) [Compound 90] | 5 | 5 | 5 | 3 | 3 | 5 | 0 | 0 | 1 | 5 | 5 | 5 | 5 | 5 | 5 | 5 | 5 | 5 | 3 | 4 | Herbicidal effect, common purslane ([6]; 40 g./a.): 5; Herbicidal effect, radish (radish; 10 g./a.): 0; Herbicidal effect, radish (radish; 20 g./a.): 0; Herbicidal effect, radish (radish; 40 g./a.): 0; Herbicidal effect, redroot pigweed ([7]; 10 g./a.): 3; Herbicidal effect, redroot pigweed ([7]; 20 g./a.): 4; Herbicidal effect, redroot pigweed ([7]; 40 g./a.): 5 |
| CCCCOP(=O)(SCC)SCC(=O)N1CCCCC1CC (stereo not drawn) [Compound 92] | 5 | 5 | 5 | 5 | 5 | 5 | 0 | 0 | 2 | 5 | 5 | 5 | 5 | 5 | 5 | 5 | 5 | 5 | 5 | 5 | Herbicidal effect, common purslane ([6]; 40 g./a.): 5; Herbicidal effect, radish (radish; 10 g./a.): 0; Herbicidal effect, radish (radish; 20 g./a.): 0; Herbicidal effect, radish (radish; 40 g./a.): 0; Herbicidal effect, redroot pigweed ([7]; 10 g./a.): 5; Herbicidal effect, redroot pigweed ([7]; 20 g./a.): 5; Herbicidal effect, redroot pigweed ([7]; 40 g./a.): 5 |
